Source: the supplement of paper PMC10307832

How the values were obtained:
Assay in all cases: relative viability (nuclei count vs DMSO), 5 days (fraction); higher = more cells survive
NCI-H2405 = system: NCI-H2405
Method in brief: (§1)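 Lung cancer cell lines in 1536-well plates got either a single drug or a fixed anchor-drug dose together with five library-drug doses (not always all listed) in √10 steps, by pin tool, on the day after seeding. Nuclei were counted after 5 days, and relative viability is the treated-to-vehicle ratio of nuclei counts. Values are medians of duplicate plates.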

NCI-H2126 = system: NCI-H2126
Method in brief: as §1

SK-LU-1 = system: SK-LU-1
Method in brief: as §1

NCI-H1944 = system: NCI-H1944
Method in brief: as §1

HCC-15 = system: HCC-15
Method in brief: as §1

HARA = system: HARA
Method in brief: as §1

NCI-H2228 = system: NCI-H2228
Method in brief: as §1

LC-2-ad = system: LC-2-ad
Method in brief: as §1

ABC-1 = system: ABC-1
Method in brief: as §1

NCI-H23 = system: NCI-H23
Method in brief: as §1

COR-L23 = system: COR-L23
Method in brief: as §1

ChaGo-K-1 = system: ChaGo-K-1
Method in brief: as §1

NCI-H358 = system: NCI-H358
Method in brief: as §1

NCI-H1793 = system: NCI-H1793
Method in brief: as §1

HCC-366 = system: HCC-366
Method in brief: as §1

NCI-H1395 = system: NCI-H1395
Method in brief: as §1

HCC-78 = system: HCC-78
Method in brief: as §1

EMC-BAC-2 = system: EMC-BAC-2
Method in brief: as §1

NCI-H1993 = system: NCI-H1993
Method in brief: as §1

NCI-H838 = system: NCI-H838
Method in brief: as §1

HOP-62 = system: HOP-62
Method in brief: as §1

NCI-H2023 = system: NCI-H2023
Method in brief: as §1

## COc1nc(C)cnc1NS(=O)(=O)c1cccnc1-c1ccc(-c2nnco2)cc1 [Zibotentan] + COc1cccc2cc(-c3nc([C@H]4CC[C@H](C(=O)O)CC4)n4ncnc(N)c34)[nH]c12 [OSI-027] (partner 0.5 µM)
NCI-H2405; first compound 0.08 µM
  relative viability: 0.694
NCI-H2405; first compound 0.253 µM
  relative viability: 0.657
NCI-H2405; first compound 0.8 µM
  relative viability: 0.663
NCI-H2405; first compound 2.53 µM
  relative viability: 0.627
NCI-H2126; first compound 0.08 µM
  relative viability: 0.769
NCI-H2126; first compound 0.253 µM
  relative viability: 0.718
NCI-H2126; first compound 0.8 µM
  relative viability: 0.609
NCI-H2126; first compound 2.53 µM
  relative viability: 0.684
SK-LU-1; first compound 0.08 µM
  relative viability: 0.38
SK-LU-1; first compound 0.253 µM
  relative viability: 0.31
SK-LU-1; first compound 0.8 µM
  relative viability: 0.344
SK-LU-1; first compound 2.53 µM
  relative viability: 0.325
NCI-H1944; first compound 0.08 µM
  relative viability: 0.439
NCI-H1944; first compound 0.253 µM
  relative viability: 0.393
NCI-H1944; first compound 0.8 µM
  relative viability: 0.427
NCI-H1944; first compound 2.53 µM
  relative viability: 0.465
HCC-15; first compound 0.08 µM
  relative viability: 0.644
HCC-15; first compound 0.8 µM
  relative viability: 0.759
HCC-15; first compound 2.53 µM
  relative viability: 0.781
HARA; first compound 0.08 µM
  relative viability: 0.42
HARA; first compound 0.253 µM
  relative viability: 0.462
HARA; first compound 0.8 µM
  relative viability: 0.437
HARA; first compound 2.53 µM
  relative viability: 0.715
NCI-H2228; first compound 0.08 µM
  relative viability: 0.623
NCI-H2228; first compound 0.253 µM
  relative viability: 0.571
NCI-H2228; first compound 0.8 µM
  relative viability: 0.484
NCI-H2228; first compound 2.53 µM
  relative viability: 0.659
LC-2-ad; first compound 0.08 µM
  relative viability: 0.817
LC-2-ad; first compound 0.8 µM
  relative viability: 1.13
LC-2-ad; first compound 2.53 µM
  relative viability: 0.79
ABC-1; first compound 0.08 µM
  relative viability: 0.608
ABC-1; first compound 0.253 µM
  relative viability: 0.542
ABC-1; first compound 0.8 µM
  relative viability: 0.53
ABC-1; first compound 2.53 µM
  relative viability: 0.527
NCI-H23; first compound 0.08 µM
  relative viability: 0.63
NCI-H23; first compound 0.253 µM
  relative viability: 0.619
NCI-H23; first compound 0.8 µM
  relative viability: 0.389
NCI-H23; first compound 2.53 µM
  relative viability: 0.743
COR-L23; first compound 0.08 µM
  relative viability: 0.713
COR-L23; first compound 0.253 µM
  relative viability: 0.651
COR-L23; first compound 0.8 µM
  relative viability: 0.789
COR-L23; first compound 2.53 µM
  relative viability: 0.798
ChaGo-K-1; first compound 0.08 µM
  relative viability: 0.547
ChaGo-K-1; first compound 0.253 µM
  relative viability: 0.579
ChaGo-K-1; first compound 0.8 µM
  relative viability: 0.583
ChaGo-K-1; first compound 2.53 µM
  relative viability: 0.604
NCI-H358; first compound 0.08 µM
  relative viability: 0.833
NCI-H358; first compound 0.253 µM
  relative viability: 0.531
NCI-H358; first compound 0.8 µM
  relative viability: 0.725
NCI-H358; first compound 2.53 µM
  relative viability: 0.824
NCI-H1793; first compound 0.08 µM
  relative viability: 0.351
NCI-H1793; first compound 0.253 µM
  relative viability: 0.284
NCI-H1793; first compound 0.8 µM
  relative viability: 0.224
NCI-H1793; first compound 2.53 µM
  relative viability: 0.254
HCC-366; first compound 0.08 µM
  relative viability: 0.922
HCC-366; first compound 0.253 µM
  relative viability: 0.884
HCC-366; first compound 0.8 µM
  relative viability: 0.389
HCC-366; first compound 2.53 µM
  relative viability: 1.1
NCI-H1395; first compound 0.08 µM
  relative viability: 0.727
NCI-H1395; first compound 0.253 µM
  relative viability: 0.633
NCI-H1395; first compound 0.8 µM
  relative viability: 0.577
NCI-H1395; first compound 2.53 µM
  relative viability: 0.7
HCC-78; first compound 0.08 µM
  relative viability: 0.358
HCC-78; first compound 0.253 µM
  relative viability: 0.332
HCC-78; first compound 0.8 µM
  relative viability: 0.356
HCC-78; first compound 2.53 µM
  relative viability: 0.323
EMC-BAC-2; first compound 0.08 µM
  relative viability: 0.376
EMC-BAC-2; first compound 0.8 µM
  relative viability: 0.381
EMC-BAC-2; first compound 2.53 µM
  relative viability: 0.414
NCI-H1993; first compound 0.08 µM
  relative viability: 0.522
NCI-H1993; first compound 0.253 µM
  relative viability: 0.494
NCI-H1993; first compound 0.8 µM
  relative viability: 0.468
NCI-H1993; first compound 2.53 µM
  relative viability: 0.525
NCI-H838; first compound 0.08 µM
  relative viability: 0.349
NCI-H838; first compound 0.253 µM
  relative viability: 0.366
NCI-H838; first compound 0.8 µM
  relative viability: 0.393
NCI-H838; first compound 2.53 µM
  relative viability: 0.389
HOP-62; first compound 0.08 µM
  relative viability: 0.903
HOP-62; first compound 0.253 µM
  relative viability: 0.871
HOP-62; first compound 0.8 µM
  relative viability: 0.878
HOP-62; first compound 2.53 µM
  relative viability: 0.931
NCI-H2023; first compound 0.08 µM
  relative viability: 0.475
NCI-H2023; first compound 0.253 µM
  relative viability: 0.228
NCI-H2023; first compound 0.8 µM
  relative viability: 0.371
NCI-H2023; first compound 2.53 µM
  relative viability: 0.476
